The values that follow are results of earlier work, collected in patent publication US10674699B2, “Endophyte enhanced seedlings with increased pest tolerance” (priority 2006, dated 2020).

This data set has as its system spruce budworm cells. The note with it: Can J Chem 81: 284; cited from earlier work.

For the substance “trihydroxy-4-1′-hydroxyethyl) isocoumarin”, the “toxicity to spruce budworm cells” value is on record as “^camong others; a new compound trihydroxy-4-1′-hydroxyethyl) isocoumarin also toxic to spruce budworm cells (Can J Chem 81: 284)”.
